Structures can show the parent of a compound that is named as a salt.
Experiments:
[1] = biological target: T1, Recombinant human 17β-HSD13 (Homo sapiens, UniProt Q7Z5P4); assay: 17β-HSD13 rapid-fire mass spectrometry assay (RF/MS assay); type: biochemical; settings: inhibition of 17β-HSD13, RF/MS assay; HSD17B13 80 nM, LTB4 10 μM, NAD+ 0.5 mM, RT 3 h
T1 construct: host or cells: Sf9 insect cells
T1 sequence (Q7Z5P4 20-300): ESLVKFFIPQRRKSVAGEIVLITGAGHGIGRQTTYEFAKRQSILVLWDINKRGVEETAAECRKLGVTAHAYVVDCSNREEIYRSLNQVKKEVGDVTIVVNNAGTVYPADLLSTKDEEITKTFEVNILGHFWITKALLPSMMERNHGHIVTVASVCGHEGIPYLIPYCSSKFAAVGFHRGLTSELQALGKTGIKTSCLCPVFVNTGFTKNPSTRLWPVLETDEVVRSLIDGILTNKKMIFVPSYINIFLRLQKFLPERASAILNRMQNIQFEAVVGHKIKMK
Method in brief: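 Purified recombinant human 17β-HSD13 (sf9-expressed, 80 nM) incubated with compound (0–100 μM), 10 μM LTB4 and 0.5 mM NAD+ in 20 mM Tris pH 7.5, 0.005% BSA, 0.01% Tween-20, 3 h at RT. 12-oxo-LTB4 formation quantified by RapidFire MS/MS; percent conversion normalized to controls, IC50 from variable-slope fit, duplicates.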

[2] = biological target: T2, human HSD17β13 (stable HEK293T cell line overexpressing human HSD17β13) (Homo sapiens, UniProt Q7Z5P4); assay: HSD17β13 inhibitor cell-based screening assay (conversion of estradiol-d2 to estrone-d2 by RF-MS); settings: conversion of estradiol-d2 to estrone-d2 after 24 hours
T2 construct: expressed in transfected cells
T2 sequence (Q7Z5P4 20-300): T1 sequence (Q7Z5P4 20-300)
Method in brief: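 Cellular IC50 is based on 24-h conversion of estradiol-d2 (5 μM final) to estrone-d2, measured by RF-MS in acetonitrile-precipitated supernatants. Assay uses human HSD17β13-overexpressing HEK293T cells (7.5E3/well, 1% charcoal/dextran FBS MEM), with compounds dosed as a 9-point 1:3 series to 10 μM final. ATPlite luminescence on overexpressing and parent lines measured viability.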

O=c1c2c(nc(-c3ccc(F)cc3C3CC3)n1Cc1cnc(C3CC3)o1)sc1c(O)c(Cl)ccc12 [Example 50, 7-chloro-2-(2-cyclopropyl-4-fluorophenyl)-3-((2-cyclopropyloxazol-5-yl)methyl)-8-hydroxybenzo[4,5]thieno[2,3-d]pyrimidin-4(3H)-one]
IC50 [1]: < 100 nM
IC50 [2]: < 100 nM

COc1ccc(-c2nc3sc4c(-c5ncco5)cccc4c3c(=O)n2Cc2cnco2)c(C2CC2)c1 [Example 9, 2-(2-cyclopropyl-4-methoxyphenyl)-8-(oxazol-2-yl)-3-(oxazol-5-ylmethyl)benzo[4,5]thieno[2,3-d]pyrimidin-4(3H)-one]
IC50 [1]: > 10000 nM
IC50 [2]: 1000 to 100000 nM

O=c1c2c(nc(-c3cc(F)c(F)cc3C3CC3)n1Cc1cc(C(F)(F)F)no1)sc1c(O)c(Cl)ccc12 [Example 85]
IC50 [1]: < 100 nM
IC50 [2]: < 100 nM

Cn1cc(Cn2c(-c3cc(F)c(F)cc3C3CC3)nc3sc4c(O)c(Cl)ccc4c3c2=O)ccc1=O [Example 174]
IC50 [1]: < 100 nM
IC50 [2]: < 100 nM

COc1ccc(-c2nc3sc4c(O)c(Cl)ccc4c3c(=O)n2Cc2cncs2)c(C2CC2)c1 [Example 190]
IC50 [1]: < 100 nM
IC50 [2]: < 100 nM

COc1ccc(C2CC2)c(-c2nc3sc4c(O)c(Cl)ccc4c3c(=O)n2Cc2cnco2)c1 [Example 83]
IC50 [1]: < 100 nM
IC50 [2]: < 100 nM

O=c1c2c(nc(-c3ncc(F)cc3C3CC3)n1Cc1cc(C(F)(F)F)no1)sc1c(O)c(Cl)ccc12 [Example 97]
IC50 [1]: < 100 nM
IC50 [2]: < 100 nM

COc1ccc(-c2nc3sc4c(ccc5[nH]c(=O)oc54)c3c(=O)n2Cc2cnco2)c(C2CC2)c1 [Example 29, 8-(2-cyclopropyl-4-methoxyphenyl)-7-(oxazol-5-ylmethyl)-3,7-dihydrooxazolo[5″,4″:3′,4′]benzo[1′,2′:4,5]thieno[2,3-d]pyrimidine-2,6-dione]
IC50 [1]: > 10000 nM
IC50 [2]: 500 to 1000 nM

COc1ccc(-c2nc3sc4c(O)c(Cl)ccc4c3c(=O)n2Cc2cnco2)c(C(C)C)c1 [Example 125]
IC50 [1]: < 100 nM
IC50 [2]: < 100 nM

O=c1c2c(nc(-c3ccc(F)c(F)c3C3CC3)n1Cc1cnco1)sc1c(O)c(Cl)ccc12 [Example 132]
IC50 [1]: < 100 nM
IC50 [2]: < 100 nM

COc1ccc(-c2nc3sc4c(C(=O)O)cccc4c3c(=O)n2Cc2cnco2)c(C2CC2)c1 [Example 2, 2-(2-cyclopropyl-4-methoxyphenyl)-3-(oxazol-5-ylmethyl)-4-oxo-3,4-dihydrobenzo[4,5]thieno[2,3-d]pyrimidine-8-carboxylic acid]
IC50 [1]: 100 to 1000 nM
IC50 [2]: 1000 to 100000 nM

Cc1cc(Cn2c(-c3ccc(F)cc3C3CC3)nc3sc4c(O)c(Cl)ccc4c3c2=O)on1 [Example 43, 7-chloro-2-(2-cyclopropyl-4-fluorophenyl)-8-hydroxy-3-((3-methylisoxazol-5-yl)methyl)benzo[4,5]thieno[2,3-d]pyrimidin-4(3H)-one]
IC50 [1]: < 100 nM
IC50 [2]: < 100 nM

CC(C)(C)c1ccc(-c2nc3sc4c(O)c(Cl)ccc4c3c(=O)n2Cc2cnco2)c(C2CC2)c1 [Example 75, 2-(4-(tert-butyl)-2-cyclopropylphenyl)-7-chloro-8-hydroxy-3-(oxazol-5-ylmethyl)benzo[4,5]thieno[2,3-d]pyrimidin-4(3H)-one]
IC50 [1]: < 100 nM
IC50 [2]: < 100 nM

C=CCc1ccc2c(sc3nc(-c4ccc(OC)cc4C4CC4)n(Cc4cnco4)c(=O)c32)c1O [Example 21, 7-allyl-2-(2-cyclopropyl-4-methoxyphenyl)-8-hydroxy-3-(oxazol-5-ylmethyl)benzo[4,5]thieno[2,3-d]pyrimidin-4(3H)-one]
IC50 [1]: 100 to 1000 nM
IC50 [2]: 1000 to 100000 nM

COc1ccc(-c2nc3sc4c(O)c(Cl)ccc4c3c(=O)n2Cc2cnc(Cl)s2)c(C2CC2)c1 [Example 191]
IC50 [1]: < 100 nM
IC50 [2]: < 100 nM

O=c1c2c(nc(-c3cc(F)c(F)cc3C3CC3)n1Cc1cc(C(F)(F)F)on1)sc1c(O)c(Cl)ccc12 [Example 66, 7-chloro-2-(2-cyclopropyl-4,5-difluorophenyl)-8-hydroxy-3-((5-(trifluoromethyl)isoxazol-3-yl)methyl)benzo[4,5]thieno[2,3-d]pyrimidin-4(3H)-one]
IC50 [1]: < 100 nM
IC50 [2]: < 100 nM

O=c1c2c(nc(-c3ccc(Cl)cc3C3CC3)n1Cc1cnco1)sc1c(O)c(Cl)ccc12 [Example 106]
IC50 [1]: < 100 nM
IC50 [2]: < 100 nM

COc1cc(C2CC2)c(-c2nc3sc4c(O)c(Cl)ccc4c3c(=O)n2Cc2cnco2)cc1C(F)(F)F [Example 78]
IC50 [1]: 100 to 1000 nM
IC50 [2]: < 100 nM

O=c1c2c(nc(-c3cc(F)c(F)cc3C3CC3)n1Cc1cnco1)sc1c(O)c(Cl)ccc12 [Example 119]
IC50 [1]: < 100 nM
IC50 [2]: < 100 nM

COc1ccc(-c2nc3sc4c(OS(=O)(=O)O)cccc4c3c(=O)n2Cc2cnco2)c(C2CC2)c1 [Example 23, 2-(2-cyclopropyl-4-methoxyphenyl)-3-(oxazol-5-ylmethyl)-4-oxo-3,4-dihydrobenzo[4,5]thieno[2,3-d]pyrimidin-8-yl hydrogen sulfate]
IC50 [1]: 100 to 1000 nM
IC50 [2]: 1000 to 100000 nM

COc1ccc(-c2nc3sc4c(O)c(Cl)ccc4c3c(=O)n2Cc2ocnc2F)c(C2CC2)c1 [Example 220]
IC50 [1]: < 100 nM
IC50 [2]: < 100 nM

O=c1c2c(nc(-c3ccc(C(F)F)cc3C3CC3)n1Cc1cc(C(F)(F)F)no1)sc1c(O)c(Cl)ccc12 [Example 171]
IC50 [1]: < 100 nM
IC50 [2]: < 100 nM

COc1ccc(-c2nc3sc4c(C=O)cccc4c3c(=O)n2Cc2cnco2)c(C2CC2)c1 [Example 15, 2-(2-cyclopropyl-4-methoxyphenyl)-3-(oxazol-5-ylmethyl)-4-oxo-3,4-dihydrobenzo[4,5]thieno[2,3-d]pyrimidine-8-carbaldehyde]
IC50 [1]: > 10000 nM
IC50 [2]: 1000 to 100000 nM

COc1ccc(-c2nc3sc4c(N)cccc4c3c(=O)n2Cc2cnco2)c(C2CC2)c1 [Example 6, 8-amino-2-(2-cyclopropyl-4-methoxyphenyl)-3-(oxazol-5-ylmethyl)benzo[4,5]thieno[2,3-d]pyrimidin-4(3H)-one]
IC50 [1]: > 10000 nM
IC50 [2]: 1000 to 100000 nM

COc1cc(C2CC2)c(-c2nc3sc4c(O)c(Cl)ccc4c3c(=O)n2Cc2cnco2)cc1Cl [Example 105, 7-chloro-2-(5-chloro-2-cyclopropyl-4-methoxyphenyl)-8-hydroxy-3-(oxazol-5-ylmethyl)benzo[4,5]thieno[2,3-d]pyrimidin-4(3H)-one]
IC50 [1]: < 100 nM
IC50 [2]: < 100 nM

COc1cc(F)c(-c2nc3sc4c(O)c(Cl)ccc4c3c(=O)n2Cc2cnco2)c(C2CC2)c1 [Example 137]
IC50 [1]: < 100 nM
IC50 [2]: < 100 nM

COc1ccc(-c2nc3sc4c(O)c(Cl)cc(Cl)c4c3c(=O)n2Cc2cnco2)c(C2CC2)c1 [Example 18, 5,7-dichloro-2-(2-cyclopropyl-4-methoxyphenyl)-8-hydroxy-3-(oxazol-5-ylmethyl)benzo[4,5]thieno[2,3-d]pyrimidin-4(3H)-one]
IC50 [1]: 100 to 1000 nM
IC50 [2]: 100 to 500 nM

COc1ccc(-c2nc3sc4c(O)c(Cl)ccc4c3c(=O)n2Cc2cnco2)c(Br)c1 [Example 122]
IC50 [1]: < 100 nM
IC50 [2]: < 100 nM
